US20250326744A1, “PIPERAZINE DERIVATIVE OR SALT THEREOF, AND PHARMACEUTICAL COMPOSITION” (priority 2022, published 2025)
Structures can show the parent of a compound that is named as a salt.

Key:
mexY (EC) strain = test: Efflux ability inhibition effect on drug efflux pump MexY (Test Examples 1 and 3): proliferation (OD595) of mexY (EC) strain with EM or LVFX at 1/4 MIC, EC75; assay type: cell-based, Escherichia coli; settings: for EC75, mexY (EC) strain, EM: combined with EM at 1/4 MIC; for EC75, mexY (EC) strain, LVFX: combined with LVFX at 1/4 MIC
Description: The efflux ability inhibition effect of the test compound on the drug efflux pump was evaluated using the bacterial proliferative ability in the presence of EM or LVFX as an index.
EM is a macrolide antibacterial agent and is a drug that is discharged outside the bacteria by MexB and MexY LVFX is a quinolone antibacterial agent and is a drug that is discharged outside the bacteria by MexB and MexY In a case where the test compound has an efflux ability inhibitory ability against the drug efflux pump, the proliferation of bacteria is suppressed by the combined use of EM or LVFX and the test compound, as compared with the case where EM or LVFX is used alone.
A mutant strain (hereinafter, referred to as an “mexB (EC) strain”) obtained by transferring the genes of the main multidrug efflux system MexAB-OprM of Pseudomonas aeruginosa described in Nature, 2013, Vol. 500, pp. 102 to 106 as a plasmid into Escherichia coli strains in which the acrB and tolC genes of the multidrug efflux system AcrAB-TolC were deleted as described in Journal of Infection and Chemotherapy 2008, Vol. 14, pp. 23 to 29, and a gene transfer strain (hereinafter, referred to as an “mexY (EC) strain”) of another main multidrug efflux system MexXY-OprM of Pseudomonas aeruginosa were used for the evaluation of test compounds.
In the mexB (EC) strain, an expression level of MexB of the drug efflux pump is accelerated, and in the mexY (EC) strain, an expression level of MexY of the drug efflux pump is accelerated.
For culturing each Escherichia coli strain, a 96-well plate (amount of culture medium per well: 100 μL) was used and Luria-Bertani broth (LB) culture medium was used. The inoculation amount of the bacteria was set to 10^4 to 5 CFU/well.
The mexB (EC) strain and the mexY (EC) strain were cultured for 16 to 20 hours in a culture medium to which EM or LVFX and test compounds at various concentrations (0 to 800 μM) were added, and the proliferation of the bacterial strains was evaluated by optical turbidity at 595 nm (OD595). The concentration of the antibacterial agents (EM and LVFX) in the culture medium were each set to ¼ of the minimum inhibitory concentration (MIC) (hereinafter, referred to as ¼ MIC) of the single antibacterial agent.
The proliferation of bacteria in a case where the antibacterial agent was added at the concentration of ¼ MIC in a case where the test compound was not added was measured, and compared with the proliferation of bacteria in a case where the test compound was contained, and the lowest concentration of the test compound at which the proliferation was inhibited by 75% or more was defined as the drug efflux pump inhibitory ability of the test compound as 75% inhibitory effect concentration (EC75).
The drug efflux pump inhibitory ability of each test compound in a case of being used in combination with the antibacterial agent against the mexB (EC) strain and the mexY (EC) strain was evaluated as follows according to the value of EC75. • S: EC75≤[…] • A: 12.5 μM<EC75≤25 μM • B: 25 μM<EC75≤100 μM • C: […]
In the same manner as in Test Example 1, the efflux ability inhibition effect of the test compound on the drug efflux pump was evaluated using the bacterial proliferation ability in the presence of EM or LVFX as an index.

mexB (PA) strain = test: Combinational effect with antibacterial agent against Pseudomonas aeruginosa (Test Examples 2 and 4): mexB (PA) strain with LVFX, TC or AZT at 1/4 MIC, EC99; assay type: cell-based; settings: for EC99, mexB (PA), AZT / EC99, combinational effect with AZT, mexB (PA): combined with AZT at 1/4 MIC; for EC99, mexB (PA), LVFX / EC99, combinational effect with LVFX, mexB (PA): combined with LVFX at 1/4 MIC; for EC99, combinational effect with AZT, mexB (PA) / EC99, combinational effect with LVFX, mexB (PA) / EC99, combinational effect with TC, mexB (PA): mexB (PA) strain, Test Example 4
How it was run: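 P. aeruginosa mexB (PA) strain, lacking MexCD-OprJ, MexEF-OprN and MexXY and overexpressing MexAB-OprM, grown 16–20 h in CAMHB (10^4–5 CFU/well) with LVFX, TC or AZT at ¼ MIC plus test compound at 0–800 μM. Growth read as OD595; EC99 is the lowest compound concentration giving ≥99% growth inhibition.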

S-3769 strain = test: Combinational effect with antibacterial agent against Pseudomonas aeruginosa (Test Examples 2 and 4): S-3769 strain with AMK or GM at 1/4 MIC, EC99; assay type: cell-based; settings: for EC99, combinational effect with AMK, S-3769 strain / EC99, combinational effect with GM, S-3769 strain: Test Example 4
How it was run: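 P. aeruginosa S-3769 (clinical isolate, MexY overexpressed) grown 16–20 h in CAMHB, 10^4 to 5 CFU/well, with AMK or GM at ¼ MIC plus test compound 0–800 μM. Growth read as OD595; EC99 is the lowest compound concentration giving ≥99% growth inhibition.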

[1] = Table 51, Test Example 1, 16 to 20 hours culture, OD595
[2] = Table 52, Test Example 2, 16 to 20 hours culture, OD595
[3] = Table 53, Test Example 3, same manner as Test Example 1

Compound	EC75, mexY (EC) strain, EM (mexY (EC) strain; [1])	EC75, mexY (EC) strain, LVFX (mexY (EC) strain; [1])	EC99, mexB (PA), AZT (mexB (PA) strain; [2])	EC99, mexB (PA), LVFX (mexB (PA) strain; [2])	other results
O=C(CN1CCN(CCc2ccccc2)CC1)N1CCN(Cc2c(O)cccc2Cl)CC1 [Example 229, Hydrochloride of 1-(4-(2-chloro-6-hydroxybenzyl)piperazin-1-yl)-2-(4-phenethylpiperazin-1-yl)ethan-1-one]	B (25 μM<EC75≤100 μM)	B (25 μM<EC75≤100 μM)	B (25 μM<EC99≤100 μM)	B (25 μM<EC99≤100 μM)	
O=C(CN1CCN(CCc2ccccc2)CC1)N1CCN(Cc2cccc3ccccc23)CC1 [Example 238]	B (25 μM<EC75≤100 μM)	B (25 μM<EC75≤100 μM)	B (25 μM<EC99≤100 μM)	B (25 μM<EC99≤100 μM)	
COc1ccccc1CN1CCN(C(=O)CN2CCN(CCc3cccc(Cl)c3)CC2)CC1 [Example 272, 2-(4-(3-chlorophenethyl)piperazin-1-yl)-1-(4-(2-methoxybenzyl)piperazin-1-yl)ethan-1-one]	B (25 μM<EC75≤100 μM)	B (25 μM<EC75≤100 μM)	S (EC99≤12.5 μM)	S (EC99≤12.5 μM)	
COc1ccccc1CN1CCN(C(=O)CN2CCN(CCc3ccc(F)cc3)CC2)CC1 [Example 277, 2-(4-(4-Fluorophenethyl)piperazin-1-yl)-1-(4-(2-methoxybenzyl)piperazin-1-yl) ethan-1-one and hydrochloride thereof]	B (25 μM<EC75≤100 μM)	B (25 μM<EC75≤100 μM)	B (25 μM<EC99≤100 μM)	B (25 μM<EC99≤100 μM)	
COc1ccccc1CN1CCN(C(=O)CN2CCC(/C=C/c3ccccc3)CC2)CC1 [Example 400, hydrochloride of (E)-1-(4-(2-methoxybenzyl)piperazin-1-yl)-2-(4-styrylpiperidin-1-yl)ethan-1-one]	B (25 μM<EC75≤100 μM)	B (25 μM<EC75≤100 μM)	A (12.5 μM<EC99≤25 μM)	S (EC99≤12.5 μM)	
COc1ccccc1CN1CCN(C(=O)CN2CCC(CCc3ccccc3)(COCc3ccccc3)CC2)CC1 [Example 403, Hydrochloride of 2-(4-((benzyloxy)methyl)-4-phenethylpiperidin-1-yl)-1-(4-(2-methoxybenzyl)piperazin-1-yl)ethan-1-one]		B (25 μM<EC75≤100 μM)	S (EC99≤12.5 μM)	S (EC99≤12.5 μM)	
COc1ccccc1CN1CCN(C(=O)CN2CCC(C#Cc3ccccc3)CC2)CC1 [Example 405, Hydrochloride of 1-(4-(2-methoxybenzyl)piperazin-1-yl)-2-(4-(phenylethynyl)piperidin-1-yl)ethan-1-one]	B (25 μM<EC75≤100 μM)	B (25 μM<EC75≤100 μM)	B (25 μM<EC99≤100 μM)	A (12.5 μM<EC99≤25 μM)	
COc1ccccc1CN1CCN(C(=O)CN2CCC(C(=O)Nc3ccccc3)CC2)CC1 [Example 408, Hydrochloride of 1-(2-(4-(2-methoxybenzyl)piperazin-1-yl)-2-oxoethyl)-N-phenylpiperidine-4-carboxamide]	B (25 μM<EC75≤100 μM)	B (25 μM<EC75≤100 μM)			
COc1ccccc1CN1CCN(C(=O)CN2CCC(CCc3ccccc3)(NC(N)=O)CC2)CC1 [Example 416, hydrochloride of 1-(1-(2-(4-(2-methoxybenzyl)piperazin-1-yl)-2-oxoethyl)-4-phenethylpiperidin-4-yl)urea]	B (25 μM<EC75≤100 μM)	B (25 μM<EC75≤100 μM)			
CCOc1cccc(F)c1CN1CCN(C(=O)CN2CCC(C(N)Cc3ccccc3)CC2)CC1 (stereo not drawn) [Example 423, hydrochloride of 2-(4-(1-amino-2-phenylethyl)piperidin-1-yl)-1-(4-(2-ethoxy-6-fluorobenzyl)piperazin-1-yl)ethan-1-one]	B (25 μM<EC75≤100 μM)	A (12.5 μM<EC75≤25 μM)	C (100 μM<EC99)	C (100 μM<EC99)	EC99, mexB (PA), TC (mexB (PA) strain; Table 52, Test Example 2, combined with TC at 1/4 MIC, 16 to 20 hours culture, OD595): B (25 μM<EC99≤100 μM); EC99, S-3769 strain, AMK (S-3769 strain; Table 52, Test Example 2, combined with AMK at 1/4 MIC, 16 to 20 hours culture, OD595): C (100 μM<EC99); EC99, S-3769 strain, GM (S-3769 strain; Table 52, Test Example 2, combined with GM at 1/4 MIC, 16 to 20 hours culture, OD595): C (100 μM<EC99)
CCOc1cccc(F)c1CN1CCN(C(=O)[C@H](N)C2CCN(CCc3cc(Cl)ccc3-c3ccnn3C)CC2)CC1 [Example 503, Hydrobromide of (R)-2-amino-2-(1-(5-chloro-2-(1-methyl-1H-pyrazol-5-yl)phenethyl)piperidin-4-yl)-1-(4-(2-ethoxy-6-fluorobenzyl)piperazin-1-yl)ethan-1-one]					EC75, mexY (EC) strain, EM (mexY (EC) strain; [3]): A (12.5 μM<EC75≤25 μM); EC99, combinational effect with AZT, mexB (PA) (mexB (PA) strain): C (100 μM<EC99); EC99, combinational effect with LVFX, mexB (PA) (mexB (PA) strain): C (100 μM<EC99); EC99, combinational effect with TC, mexB (PA) (mexB (PA) strain; combined with TC at 1/4 MIC): C (100 μM<EC99); EC99, combinational effect with AMK, S-3769 strain (S-3769 strain; combined with AMK at 1/4 MIC): B (25 μM<EC99≤100 μM); EC99, combinational effect with GM, S-3769 strain (S-3769 strain; combined with GM at 1/4 MIC): B (25 μM<EC99≤100 μM)
N[C@@H](C(=O)N1CCN(Cc2nccc3c2OCCO3)CC1)C1CCN(CCc2cc(Cl)ccc2-c2ccccc2)CC1 [Example 520, Hydrobromide of (R)-2-amino-2-(1-(2-(4-chloro-[1,1-biphenyl]-2-yl)ethyl)piperidin-4-yl)-1-(4-((2,3-dihydro-[1,4]dioxino[2,3-c]pyridin-5-yl)methyl)piperazin-1-yl)ethan-1-one]					EC75, mexY (EC) strain, EM (mexY (EC) strain; [3]): A (12.5 μM<EC75≤25 μM); EC75, mexY (EC) strain, LVFX (mexY (EC) strain; [3]): A (12.5 μM<EC75≤25 μM); EC99, combinational effect with AZT, mexB (PA) (mexB (PA) strain): C (100 μM<EC99); EC99, combinational effect with LVFX, mexB (PA) (mexB (PA) strain): C (100 μM<EC99); EC99, combinational effect with TC, mexB (PA) (mexB (PA) strain; combined with TC at 1/4 MIC): C (100 μM<EC99); EC99, combinational effect with AMK, S-3769 strain (S-3769 strain; combined with AMK at 1/4 MIC): B (25 μM<EC99≤100 μM); EC99, combinational effect with GM, S-3769 strain (S-3769 strain; combined with GM at 1/4 MIC): C (100 μM<EC99)
CSc1ccc(CN2CCN(C(=O)[C@H](N)C3CCN(CCc4cc(Cl)ccc4-c4ccccc4)CC3)CC2)s1 [Example 523, Hydrobromide of (R)-2-amino-2-(1-(2-(4-chloro-[1,1-biphenyl]-2-yl)ethyl)piperidin-4-yl)-1-(4-((5-(methylthio)thiophen-2-yl)methyl)piperazin-1-yl)ethan-1-one]					EC75, mexY (EC) strain, LVFX (mexY (EC) strain; [3]): A (12.5 μM<EC75≤25 μM); EC99, combinational effect with AZT, mexB (PA) (mexB (PA) strain): B (25 μM<EC99≤100 μM); EC99, combinational effect with LVFX, mexB (PA) (mexB (PA) strain): B (25 μM<EC99≤100 μM); EC99, combinational effect with TC, mexB (PA) (mexB (PA) strain; combined with TC at 1/4 MIC): B (25 μM<EC99≤100 μM); EC99, combinational effect with AMK, S-3769 strain (S-3769 strain; combined with AMK at 1/4 MIC): B (25 μM<EC99≤100 μM); EC99, combinational effect with GM, S-3769 strain (S-3769 strain; combined with GM at 1/4 MIC): B (25 μM<EC99≤100 μM)
